The values below come from ChEMBL document CHEMBL4145564, “NAD(P)H:Quinone Oxidoreductase 1 (NQO1) as a Therapeutic and Diagnostic Target in Cancer” (J Med Chem, 2018).

Data set [1] concerns Homo sapiens. Briefly: Toxicity in iv dosed human assessed as maximum tolerated dose administered as infusion. In kind it is organism-based. Conditions: in vivo.
Data set [2] has as its target T1, NAD(P)H dehydrogenase [quinone] 1 (Homo sapiens, UniProt P15559). Briefly: Inhibition of recombinant human NQO1 in presence of NADPH measured at 2 sec intervals for 5 mins.
A short description of data set [3]: Half life in athymic nude mouse blood. In kind it is ADME, organism-based.
Data set [4] has as its target T2, NAD(P)H dehydrogenase [quinone] 1 (Rattus norvegicus, UniProt P05982).
T2 sequence (P05982 whole entry): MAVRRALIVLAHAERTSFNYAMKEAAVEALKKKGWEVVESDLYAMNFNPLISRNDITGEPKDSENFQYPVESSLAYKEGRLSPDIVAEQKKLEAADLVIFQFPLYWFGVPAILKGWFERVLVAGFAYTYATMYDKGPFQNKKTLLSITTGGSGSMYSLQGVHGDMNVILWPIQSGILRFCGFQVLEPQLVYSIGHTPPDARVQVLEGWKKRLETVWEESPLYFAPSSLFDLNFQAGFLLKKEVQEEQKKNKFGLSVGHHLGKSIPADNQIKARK
Briefly: Competitive binding affinity to rat liver NQO1 in presence of NADPH.

Data set [5] has as its target T1, NAD(P)H dehydrogenase [quinone] 1. The data set can be described thus: Inactivation of recombinant human NQO1 expressed in Escherichia coli using DCPIP as substrate assessed as partition ratio up to 200 nM by spectrophotometric analysis.
Data set [6] has the same target. Briefly: Inhibition of recombinant human NQO1 expressed in Escherichia coli using DCPIP as substrate assessed as rate of reduction of DCPIP in presence of NADH after 5 mins by spectrophotometric analysis.
The target is the same in data set [7]. Briefly: Inactivation of recombinant human NQO1 expressed in Escherichia coli using DCPIP as substrate assessed as rate of reduction of DCPIP by spectrophotometric analysis.

Take `CC1=C(N2CC2)C(=O)C(CO)=C(N2CC2)C1=O`: the MTD in data set [1] was 1430 ug/m2/day.
Regarding `S=C(Cc1ccc2c3c([nH]c2c1)CCCC3)N1CCOCC1`, the 50% inhibitory concentration (IC50) in data set [2] came out at 1470 nM.
With `CC1(C)CCC2=C(O1)c1ccccc1C(=O)C2=O` [LAPACHONE], the half-life in data set [3] stood at 24 min.
As to `CN1C(=O)C(O)(CC(=O)c2cc3c4c(cccc4c2)CC3)c2ccccc21` (stereo not drawn), the IC50 in data set [2] worked out at 2040 nM.
Consider `O=c1oc2ccccc2c(O)c1Cc1c(O)c2ccccc2oc1=O` [DICUMAROL], for which, in data set [4], the Ki lay in the range of 1 to 10 nM.
Regarding `COC1=CC(=O)c2c(c(COc3ccc([N+](=O)[O-])cc3)c(C)n2C)C1=O`, the Ratio in data set [5] was 1.4. Also, in data set [6], the Ki was 450 nM. Besides, the Kinact in data set [7] is 0.78 min⁻¹.
